Measurements taken from patent US12371454B2, “Cyclic peptide compound having Kras inhibitory action” (priority 2019, dated 2025).
Starred links: 1 amine or outer side, 2 acyl side, 3 side chain; linkers in the order of their positions; H or OH if unused. Positions of bridges follow the written chain, without caps; N, C: chain ends. Non-standard residues stand in square brackets, D forms with d. Residues, ends and D or L forms follow the SMILES beside them. *: point of attachment. hPhe(3-Cl-4-CF3) = N[C@@H](CCc1ccc(C(F)(F)F)c(Cl)c1)C(=O)O; hPhe(3-F,4-CF3) = N[C@@H](CCc1ccc(C(F)(F)F)c(F)c1)C(=O)O; X58 = O=C([C@H](CCc1ccc(OC(F)(F)F)c(F)c1)N[*:1])[*:2]; NMePhe(4-CF3) = CN[C@@H](Cc1ccc(C(F)(F)F)cc1)C(=O)O; 3Oxa8azabicyclo(3.2.1)octane = C1CC2COCC1N2*; NMePhe(4-Cl) = CN[C@@H](Cc1ccc(Cl)cc1)C(=O)O; NMedβ3hAla = C[C@H](CC(=O)[*:2])N(C)[*:1]; NMeGly(cPent) = CN[C@H](C(=O)O)C1CCCC1; Pro(4,4-F2) = O=C(O)[C@@H]1CC(F)(F)CN1; NMeGly(cBu) = CN[C@H](C(=O)O)C1CCC1; NMeCha = CN[C@@H](CC1CCCCC1)C(=O)O; NEtLeu = CCN[C@@H](CC(C)C)C(=O)O; NMeAhp(2) = CCCCC[C@H](NC)C(=O)O; NMeChg = CN[C@H](C(=O)O)C1CCCCC1; NMeD = CN[C@@H](CC(=O)O)C(=O)O; NMeL = CN[C@@H](CC(C)C)C(=O)O; NMeV = CN[C@H](C(=O)O)C(C)C; d(β3hA) = C[C@@H](N)CC(=O)O; Azetidin(1-yl) = C1CN(*)C1; NMeAbu = CC[C@H](NC)C(=O)O; NMeS = CN[C@@H](CO)C(=O)O; NMeA = CN[C@@H](C)C(=O)O; Piperidide = C1CCN(*)CC1; Ac5c = NC1(C(=O)O)CCCC1; Aze = O=C(O)[C@@H]1CCN1; Sar = CNCC(=O)O; Propyl = CCC*

These compounds were tested on Human pancreatic cancer cell line AsPC-1 (assay: Measurement of AsPC-1 cell growth inhibition (AsPC-1 CGI)). Conditions: 96 h.
Format: cell-based
Procedure, shortened: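 AsPC-1 cells in 15% FBS RPMI-1640 were exposed to test compound for 96 hours at 37° C, with CellTiter-Glo as endpoint.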

| Structure (SMILES) | IC50 [nM] |
| --- | --- |
| CCCCC[C@H]1C(=O)N[C@@H]([C@@H](C)CC)C(=O)N[C@@H](C)C(=O)N2CC[C@H]2C(=O)N(C)[C@@H](COCCC)C(=O)N(C)CC(=O)N[C@@H](CCc2ccc(C(F)(F)F)c(Cl)c2)C(=O)N2CCC[C@H]2C(=O)NC2(CCCC2)C(=O)N(C)[C@@H](C2CCCC2)C(=O)N(C)[C@H](C(=O)N2C3CCC2COC3)CC(=O)N1C [Compound 163] ([NMeAhp(2)]IA[Aze][NMeS](Propyl)[Sar][hPhe(3-Cl-4-CF3)]P[Ac5c][NMeGly(cPent)][NMeD]-{3Oxa8azabicyclo(3.2.1)octane}; lactam N-11) | 50 to 100 |
| CC[C@H](C)[C@@H]1NC(=O)[C@H](CC(C)C)N(C)C(=O)C[C@@H](C(=O)N2CCCCC2)N(C)C(=O)[C@H](C2CCCC2)N(C)C(=O)C2(CCCC2)NC(=O)[C@@H]2CCCN2C(=O)[C@H](CCc2ccc(OC(F)(F)F)c(F)c2)NC(=O)CN(C)C(=O)[C@H](CC2CCCCC2)N(C)C(=O)[C@@H]2CCN2C(=O)[C@H](C)N(C)C1=O [Compound 2067] ([NMeL]I[NMeA][Aze][NMeCha][Sar][X58]P[Ac5c][NMeGly(cPent)][NMeD]-Piperidide; lactam N-11) | 20 to 50 |
| CC[C@H](C)[C@@H]1NC(=O)[C@H](CC)N(C)C(=O)C[C@@H](C(=O)N2CCCCC2)N(C)C(=O)[C@H](C(C)C)N(C)C(=O)C2(CCCC2)NC(=O)[C@@H]2CCCN2C(=O)[C@H](CCc2ccc(C(F)(F)F)c(Cl)c2)NC(=O)CN(C)C(=O)[C@H](CC2CCCCC2)N(C)C(=O)[C@@H]2CCN2C(=O)[C@H](C)N(C)C1=O [Compound 1638] ([NMeAbu]I[NMeA][Aze][NMeCha][Sar][hPhe(3-Cl-4-CF3)]P[Ac5c][NMeV][NMeD]-Piperidide; lactam N-11) | 100 to 500 |
| CC[C@H](C)[C@@H]1NC(=O)[C@H](CC(C)C)N(CC)C(=O)C[C@@H](C(=O)N2CCC2)N(C)C(=O)[C@H](C2CCCC2)N(C)C(=O)C2(CCCC2)NC(=O)[C@@H]2CCCN2C(=O)[C@H](CCc2ccc(C(F)(F)F)c(Cl)c2)NC(=O)CN(C)C(=O)[C@H](CC2CCCCC2)N(C)C(=O)[C@@H]2CCN2C(=O)[C@H](C)NC1=O [Compound 1262] ([NEtLeu]IA[Aze][NMeCha][Sar][hPhe(3-Cl-4-CF3)]P[Ac5c][NMeGly(cPent)][NMeD]-{Azetidin(1-yl)}; lactam N-11) | 100 to 500 |
| CC[C@H](C)[C@@H]1NC(=O)[C@H](CC(C)C)N(C)C(=O)C[C@@H](C(=O)N2CCCCC2)N(C)C(=O)[C@H](C2CCC2)N(C)C(=O)C2(CCCC2)NC(=O)[C@@H]2CCCN2C(=O)[C@H](CCc2ccc(C(F)(F)F)c(Cl)c2)NC(=O)CN(C)C(=O)[C@H](CC2CCCCC2)N(C)C(=O)[C@@H]2CCN2C(=O)[C@H](C)N(C)C1=O [Compound 672] ([NMeL]I[NMeA][Aze][NMeCha][Sar][hPhe(3-Cl-4-CF3)]P[Ac5c][NMeGly(cBu)][NMeD]-Piperidide; lactam N-11) | 100 to 500 |

Second part, the compound after the results:

| IC50 [nM] | Structure (SMILES) |
| --- | --- |
| 100 to 500 | CC[C@H](C)[C@@H]1NC(=O)[C@H](CC(C)C)N(C)C(=O)C[C@@H](C(=O)N(C)C)N(C)C(=O)[C@H](C2CCCC2)N(C)C(=O)C2(CCCC2)NC(=O)[C@H](CC(=O)N2CCC2)N(C)C(=O)[C@H](CCc2ccc(C(F)(F)F)c(Cl)c2)NC(=O)CN(C)C(=O)[C@H](CC2CCCCC2)N(C)C(=O)[C@@H]2CCN2C(=O)[C@H](C)N(C)C1=O [Compound 2102] ([NMeL]I[NMeA][Aze][NMeCha][Sar][hPhe(3-Cl-4-CF3)][NMeD](Azetidin(1-yl))[Ac5c][NMeGly(cPent)][NMeD]-NMe2; lactam N-11) |
| 100 to 500 | CC[C@H](C)[C@@H]1NC(=O)[C@H](C(C)C)N(C)C(=O)C[C@@H](C)NC(=O)[C@H](CC(C)C)N(C)C(=O)C2(CCCC2)NC(=O)[C@H](CC(C)C)N(C)C(=O)[C@H](CCc2ccc(C(F)(F)F)c(Cl)c2)NC(=O)CN(C)C(=O)[C@H](Cc2ccc(Cl)cc2)N(C)C(=O)CN(C)C(=O)CN(C)C1=O [Compound 1014] (cyclo([Ac5c][NMeL][d(β3hA)][NMeV]I[Sar][Sar][NMePhe(4-Cl)][Sar][hPhe(3-Cl-4-CF3)][NMeL])) |
| 20 to 50 | CCCOC[C@H]1C(=O)N(C)CC(=O)N[C@@H](CCc2ccc(C(F)(F)F)c(F)c2)C(=O)N2CCC[C@H]2C(=O)NC2(CCCC2)C(=O)N(C)[C@@H](C2CCCC2)C(=O)N(C)[C@H](C)CC(=O)N(C)[C@@H](CC(C)C)C(=O)N[C@@H]([C@@H](C)CC)C(=O)N(C)[C@@H](C)C(=O)N2CC[C@H]2C(=O)N1C [Compound 776] (cyclo([Ac5c][NMeGly(cPent)][NMedβ3hAla][NMeL]I[NMeA][Aze][NMeS](Propyl)[Sar][hPhe(3-F,4-CF3)]P)) |
| 100 to 500 | CC[C@H](C)[C@@H]1NC(=O)[C@H](CC(C)C)N(C)C(=O)C[C@@H](C)N(C)C(=O)[C@H](C2CCCCC2)N(C)C(=O)C2(CCCC2)NC(=O)[C@@H]2CC(F)(F)CN2C(=O)[C@H](CCc2ccc(C(F)(F)F)c(Cl)c2)NC(=O)CN(C)C(=O)[C@H](Cc2ccc(C(F)(F)F)cc2)N(C)C(=O)[C@@H]2CCN2C(=O)[C@H](C)N(C)C1=O [Compound 319] (cyclo([Ac5c][NMeChg][NMedβ3hAla][NMeL]I[NMeA][Aze][NMePhe(4-CF3)][Sar][hPhe(3-Cl-4-CF3)][Pro(4,4-F2)])) |
